For data set [1], the species on record is Mus musculus. As to the kind of experiment: Antinociceptive tolerance in Kunming mouse pretreated with 3 times ED50 of compound for 2 hrs followed by challenge with second dose of compound by radiant heat paw withdrawal test. Format: functional.
The subject of data set [2] is Mus musculus. As to the kind of experiment: Antinociceptive activity in Kunming mouse model assessed as increase in paw withdrawal latency at 20 nmol, icv pretreated for 4 hrs with beta-FNA followed by compound addition and measured upto 10 mins by radiant heat paw withdrawal assay. Format: functional, organism-based. The conditions noted are these: time min <=10.
Data set [3] can be described thus: Toxicity in icv dosed Kunming mouse assessed as inhibition of gastrointestinal transit by measuring charcoal distance travel by charcoal meal test. Format: organism-based. The conditions noted are these: in vivo, icv_or_intrathecal, dose 0.67-6.7 nmol.
The species entered for data set [4] is Mus musculus. As to the kind of experiment: Antinociceptive tolerance in Kunming mouse pretreated with saline for 2 hrs followed by compound addition by radiant heat paw withdrawal test. Format: functional.
Data set [5] concerns Mus musculus. The data set is described as follows: Antinociceptive tolerance in Kunming mouse pretreated with compound for 3 hrs followed by challenge with second dose of compound at 20 nmol, icv and measured after 2 to 2.5 hrs by radiant heat paw withdrawal test. Format: functional, organism-based. Conditions: time lower 5.0 hrs, time upper […].
Data set [6] can be described thus: Toxicity in Kunming mouse assessed as effect on motor coordination at 10 micromol/kg, sc by rotarod test. Format: organism-based. Conditions: in vivo, dose 10 µmol/kg. On the technique in general: In the rotarod test animals must keep their balance on a rotating rod.
In data set [7] the test system is Mus musculus. The data set is described as follows: Antiallodynic activity in Kunming mouse model of spared nerve injury-induced neuropathic pain assessed as increase in paw withdrawal threshold at 10 micromol/kg, sc by von Frey test. Format: functional, organism-based. The conditions noted are these: dose 10.0 µmol/kg.
The test system of data set [8] is Mus musculus. As to the kind of experiment: Antiallodynic activity in Kunming mouse model of CFA-induced inflammatory pain assessed as increase in ipsilateral withdrawal threshold at 0.67 to 6.7 nmol, icv measured at 10 to 50 mins by von Frey test. Format: functional, organism-based. The conditions noted are these: dose 0.67-6.7 nmol, time 10-50 min.
Data set [9] has as its system Mus musculus. The data set is described as follows: Antinociceptive activity in Kunming mouse model assessed as increase in paw withdrawal latency at 0.67 to 20 nmol, icv measured after 10 mins by radiant heat paw withdrawal assay. Format: functional, organism-based. The conditions noted are these: dose 0.67-20 nmol.
For data set [10], the target named is Delta-type opioid receptor (Homo sapiens) (UniProt P41143). As to the kind of experiment: Agonist activity at delta-opioid receptor (unknown origin) expressed in HEK293 cells assessed as inhibition of forskolin-induced cAMP accumulation incubated for 15 mins by ELISA. Format: functional, cell-based.
The subject of data set [11] is Ileum. As to the kind of experiment: Inhibition of electric-field induced guinea pig ileum contraction. The conditions noted are these: Cavia porcellus. Format: functional, tissue-based.
Data set [12] relates to Mus musculus. The data set is described as follows: Antinociceptive activity in Kunming mouse model assessed as increase in paw withdrawal latency at 10 micromol/kg, sc by radiant heat paw withdrawal assay. The conditions noted are these: dose 10.0 µmol/kg. Format: functional, organism-based.
Data set [13] concerns Mus musculus. The data set is described as follows: Antinociceptive activity in Kunming mouse model assessed as increase in paw withdrawal latency at 10 micromol/kg, sc pretreated with sc dosed naloxone methiodide for 5 mins followed by compound addition by radiant heat paw withdrawal assay. Format: functional, organism-based. Conditions: dose 10.0 µmol/kg.
Data set [14] deals with Delta-type opioid receptor (Rattus norvegicus, UniProt P33533). As to the kind of experiment: Displacement of [3H]DPDPE from DOR in Wistar rat brain membranes measured after 3 hrs by scintillation counting method. Format: cell membranes, Membrane.
Data set [15] has as its system Mus musculus. As to the kind of experiment: Chronic antinociceptive tolerance in Kunming mouse pretreated with compound followed by repeated compound addition at 20 nmol, icv once daily for 7 days and measured after 10 mins by radiant heat paw withdrawal test. The conditions noted are these: time 7.0 day. Format: functional, organism-based.
A short description of data set [16]: Toxicity in Kunming mouse model assessed as conditioned place preference time at 10 micromol/kg, sc. The conditions noted are these: in vivo, dose 10 µmol/kg.
The test system of data set [17] is Mus musculus. As to the kind of experiment: Antinociceptive activity in Kunming mouse model assessed as increase in paw withdrawal latency at 10 micromol/kg, sc at 10 to 90 mins by radiant heat paw withdrawal assay. Format: functional, organism-based. The conditions noted are these: dose 10.0 µmol/kg, time 10-90 min.
Data set [18] deals with Mus musculus. As to the kind of experiment: Chronic antinociceptive tolerance in Kunming mouse assessed as maximum possible effect pretreated with compound followed by repeated compound addition at 20 nmol, icv once daily for 7 days and measured after 10 mins by radiant heat paw withdrawal test. Format: functional. Conditions: time 7 day.

The source made the active and inactive calls.

Delta-type opioid receptor, sequence (P33533 whole entry): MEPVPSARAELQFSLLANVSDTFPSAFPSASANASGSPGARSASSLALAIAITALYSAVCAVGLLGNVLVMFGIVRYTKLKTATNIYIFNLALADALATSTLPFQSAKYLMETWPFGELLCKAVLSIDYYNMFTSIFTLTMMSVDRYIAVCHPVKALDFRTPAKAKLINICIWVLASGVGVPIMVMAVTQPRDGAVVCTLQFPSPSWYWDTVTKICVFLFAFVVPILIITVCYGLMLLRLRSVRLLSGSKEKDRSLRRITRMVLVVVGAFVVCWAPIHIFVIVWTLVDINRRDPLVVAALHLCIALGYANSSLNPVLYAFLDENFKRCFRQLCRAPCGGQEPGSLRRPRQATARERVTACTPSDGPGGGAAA
Delta-type opioid receptor (Homo sapiens), sequence (P41143 whole entry): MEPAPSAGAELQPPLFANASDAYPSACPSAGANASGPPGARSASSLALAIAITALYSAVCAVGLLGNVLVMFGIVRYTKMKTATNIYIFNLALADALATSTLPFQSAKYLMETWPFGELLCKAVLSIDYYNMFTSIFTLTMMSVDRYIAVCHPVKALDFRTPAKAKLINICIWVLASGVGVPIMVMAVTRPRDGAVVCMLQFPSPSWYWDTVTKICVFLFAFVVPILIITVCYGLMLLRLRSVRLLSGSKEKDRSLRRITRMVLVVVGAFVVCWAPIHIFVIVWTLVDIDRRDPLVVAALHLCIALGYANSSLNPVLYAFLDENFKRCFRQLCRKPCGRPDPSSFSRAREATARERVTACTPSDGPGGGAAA

On to `Cc1cc(O)cc(C)c1C[C@H](N)C(=O)N[C@H]1CSSC[C@@H](C(=O)NCC(=O)N[C@H](CCCNC(=N)N)C(=O)N[C@H](CCCNC(=N)N)C(=O)O)NC(=O)[C@H](Cc2ccc(Cl)cc2)NC(=O)[C@H](Cc2c[nH]c3ccccc23)NC1=O`, for which the ED50 in data set [1] is recorded as 2.7 nmol; in [4], 2.2 nmol. In addition, the outcome in data set [2], in data set [10] and in [15] was inactive. The Activity result is reported as “Dose-Dependent Effect” in data set [3] and “Non-Toxic” in data set [6]. Moreover, the result in data set [5], in [7], in data set [8], in data set [9], in data set [12] and in data set [13] was Active. Further, the outcome in data set [17] was Active. In addition, half-maximal inhibition in data set [11] (IC50) was put at 9.21 nM. Moreover, the Ki in data set [14] was 2.09 µM. Further, the Time in [16] was 453 s.

Consider `Cc1cc(O)cc(C)c1C[C@H](N)C(=O)N[C@H]1CSSC[C@@H](C(=O)NCC(=O)N[C@H](CCCNC(=N)N)C(=O)N[C@H](CCCNC(=N)N)C(=O)O)NC(=O)[C@H](Cc2ccc(Cl)cc2)NC(=O)[C@H](Cc2ccccc2)NC1=O`, for which the ED50 in [1] came out at 3.5 nmol; in data set [4] it was 2.3 nmol. Further, the outcome in data set [2] and in data set [10] was inactive. Also, the Activity entry in [3] is reported as “Dose-Dependent Effect”; in data set [6], “Non-Toxic”. For the same molecule, the outcome in [5], in [7], in data set [8], in [9], in [12] and in data set [13] was Active. Besides, the outcome in data set [17] was Active. Moreover, the MPE in data set [18] is listed as 77.25%. Further, the midpoint of inhibition in data set [11], the IC50, lay at 11.8 nM. In data set [14], this molecule gave a Ki of 4.27 µM. For the same molecule, the Time in data set [16] is on record as 453 s.

As a reminder, the IC50 is the concentration that inhibits the measured activity by half. Higher therefore signals a need for much substance. As a reminder, the Ki is a measure of affinity in units of concentration, obtained from inhibition or displacement. Read a low Ki as tighter binding.

The record behind these values is ChEMBL document CHEMBL5029183 (J Med Chem, 2021).
